Measured values reported in patent US20260248731A1, “NON-VIRAL DELIVERY OF SMALL MOLECULE THERAPEUTICS” (BATTELLE MEMORIAL INSTITUTE, priority 2022, published 2026).

Legend:
RAW264.7 cells = assay: Cytokine release from RAW264.7 cells, multiplex cytometric bead array; assay type: cell-based, murine; conditions: 24 hours after treatment
Description: Talabostat mesylate (MedChemExpress; TLBST) was reconstituted to 10 mg/mL in deionized water and stored frozen. Prior to use, TLBST was thawed, incubated at 37° C. for 20 mins, and sonicated for 10 minutes. TLBST was serially diluted in pH 7.4, 40 mM Tris, 10 mM MgCl2 buffer to 5 mg/mL and 2.5 mg/mL. Free talabostat controls were prepared in triplicate by diluting and serially diluting the 10, 5, and 2.5 mg/mL TLBST stock in pH 7.4, 40 mM Tris-HCl, 10 mM MgCl2 buffer to generate free TLBST at 1.25, 0.625, and 0.3125 mg/mL. […]
RAW264.7 cells were seeded at 100,000 cells per well of a 96-well plate. […] Twenty-four hours following stimulation, cell culture supernatants were harvested and stored frozen until quantification of lactate dehydrogenase (LDH) by colorimetric enzymatic activity assay, and interleukin 1β (IL-1β), interleukin 18 (IL-18), and interferon β (IFNβ) by multiplex cytometric bead array assay. Percentage LDH release was calculated relative to the maximum LDH released from a lysed cells control. […] MTT signal derived from stimulated cells was quantified by colorimetric enzymatic activity assay. Percentage viability was calculated relative to the MTT signal measured in an untreated cells control. […]

[1] = tested on: macrophage-differentiated THP-1 cells; conditions: background statement; cited from earlier work
murine cancer models = conditions: systemic administration; cited from earlier work
[2] = tested on: macrophage-differentiated THP-1 cells; conditions: background statement; cited from earlier work; remark: listed apart in the source

Talabostat mesylate [Free TLBST]
IFNβ in the supernatant (RAW264.7 cells): but not free TLBST is associated with IFNβ secretion
IL-1β release [1]: exhibit both cytotoxicity and IL-1β release
protection in murine cancer models (murine cancer models): potent T and NK cell-dependent protection
cytotoxicity [2]: exhibit both cytotoxicity and IL-1β release
